molecular target: T1, human TLR9 (Homo sapiens, UniProt Q9NR96); assay: HEK293-Blue-hTLR-9 cells assay; assay type: cell-based; details: HEK293-Blue-hTLR9 cells, ODN2006 stimulation, 20 hrs, SEAP reporter; read-out: HEK/hTLR9 IC50
T1 construct: host or cells: HEK293 (HEK-Blue hTLR9)
T1 sequence (Q9NR96 26-1032): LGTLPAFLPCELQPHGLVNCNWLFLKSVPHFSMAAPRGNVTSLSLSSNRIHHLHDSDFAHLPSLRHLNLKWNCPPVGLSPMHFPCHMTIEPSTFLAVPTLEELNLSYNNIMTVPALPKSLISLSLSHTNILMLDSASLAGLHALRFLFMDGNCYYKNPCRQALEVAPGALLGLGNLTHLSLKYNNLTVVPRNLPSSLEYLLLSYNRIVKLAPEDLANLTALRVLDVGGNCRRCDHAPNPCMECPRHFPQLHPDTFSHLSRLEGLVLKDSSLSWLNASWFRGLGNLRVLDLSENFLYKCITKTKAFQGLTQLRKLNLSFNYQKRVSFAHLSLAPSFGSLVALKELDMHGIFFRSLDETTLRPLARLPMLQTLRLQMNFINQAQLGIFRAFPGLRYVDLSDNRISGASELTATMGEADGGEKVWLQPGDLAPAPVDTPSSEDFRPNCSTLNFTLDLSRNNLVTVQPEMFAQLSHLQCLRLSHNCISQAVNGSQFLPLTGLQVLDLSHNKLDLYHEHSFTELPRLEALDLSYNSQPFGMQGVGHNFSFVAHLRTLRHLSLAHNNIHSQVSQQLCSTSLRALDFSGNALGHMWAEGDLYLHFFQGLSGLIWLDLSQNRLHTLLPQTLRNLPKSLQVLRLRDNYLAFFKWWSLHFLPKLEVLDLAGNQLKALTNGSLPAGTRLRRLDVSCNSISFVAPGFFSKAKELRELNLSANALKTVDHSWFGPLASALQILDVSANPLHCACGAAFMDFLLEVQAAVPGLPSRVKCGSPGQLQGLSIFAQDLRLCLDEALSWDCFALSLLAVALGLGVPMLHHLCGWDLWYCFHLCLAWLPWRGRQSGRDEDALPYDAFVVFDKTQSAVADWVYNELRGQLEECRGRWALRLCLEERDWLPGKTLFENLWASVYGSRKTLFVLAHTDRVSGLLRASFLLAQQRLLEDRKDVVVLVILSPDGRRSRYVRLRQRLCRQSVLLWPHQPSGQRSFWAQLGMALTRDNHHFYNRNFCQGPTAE
Description: HEK293-Blue-hTLR-9 Cells Assay:
A stable HEK293-Blue-hTLR-9 cell line was purchased from InvivoGen (Cat. #: hkb-htlr9, San Diego, Calif., USA). These cells were originally designed for studying the stimulation of human TLR9 by monitoring the activation of NF-κB. A SEAP (secreted embryonic alkaline phosphatase) reporter gene was placed under the control of the IFN-β minimal promoter fused to five NF-κB and AP-1-binding sites. The SEAP was induced by activating NF-κB and AP-1 via stimulating HEK-Blue hTLR9 cells with TLR9 ligands. Therefore the reporter expression was declined by TLR9 antagonist under the stimulation of a ligand, such as ODN2006 (Cat. #: tlrl-2006-1, Invivogen, San Diego, Calif., USA), for incubation of 20 hrs. The cell culture supernatant SEAP reporter activity was determined using QUANTI-Blue^TM kit (Cat. #: rep-qbl, Invivogen, San Diego, Calif., USA) at a wavelength of 640 nm, a detection medium that turns purple or blue in the presence of alkaline phosphatase.
HEK293-Blue-hTLR9 cells were incubated at a density of 250,000˜450,000 cells/mL in a volume of 170 μL in a 96-well plate in Dulbecco's Modified Eagle's medium (DMEM) containing 4.5 g/L glucose, 50 U/mL penicillin, […] streptomycin, […] Normocin, 2 mM L-glutamine, 10% (v/v) heat-inactivated fetal bovine serum with addition of 20 μL test compound in a serial dilution in the presence of final DMSO at 1% and 10 μL of 20 uM ODN2006 in above DMEM, perform incubation under 37° C. in a CO2 incubator for 20 hrs. Then 20 μL of the supernatant from each well was incubated with 180 μL Quanti-blue substrate solution at 37° C. for 2 h and the absorbance was read at 620-655 nm using a spectrophotometer. The signaling pathway that TLR9 activation leads to downstream NF-κB activation has been widely accepted, and therefore similar reporter assay was modified for evaluating TLR9 antagonist.

IC50 [nM] | Compound
118 | [2H]c1ccc2c(N3C[C@@H](C)N4Cc5nc(OC6CCNCC6)ccc5[C@H]4C3)ccc(C#N)c2n1 [Example 24, 2-Deuterio-5-[(2S,6R)-6-methyl-11-(4-piperidyloxy)-4,7,10-triazatricyclo[7.4.0.02,7]trideca-1(9),10,12-trien-4-yl]quinoline-8-carbonitrile]
236 | [2H]c1ccc2c(N3C[C@@H](C)N4Cc5nc(N6CC[C@@](C)(N)C6)ccc5[C@H]4C3)ccc(C#N)c2n1 [Example 7, 5-[(2S,6R)-11-[(3R)-3-amino-3-methyl-pyrrolidin-1-yl]-6-methyl-4,7,10-triazatricyclo[7.4.0.02,7]trideca-1(9),10,12-trien-4-yl]-2-deuterio-quinoline-8-carbonitrile]
232 | [2H]c1ccc2c(N3C[C@@H](C)N4Cc5nc(C6CCNCC6)ccc5[C@H]4C3)ccc(C#N)c2n1 [Example 23, 2-Deuterio-5-[(2S,6R)-6-methyl-11-(4-piperidyl)-4,7,10-triazatricyclo[7.4.0.02,7]trideca-1(9),10,12-trien-4-yl]quinoline-8-carbonitrile]

Second part, the compound before the results:

Compound | IC50 [nM]
C[C@@H]1CN(c2ccc(C#N)c3ncccc23)C[C@@H]2c3ccc(N4CC5CNCC(C4)O5)nc3CN12 [Example 6, 5-[(2S,6R)-6-methyl-11-(9-oxa-3,7-diazabicyclo[3.3.1]nonan-3-yl)-4,7,10-triazatricyclo[7.4.0.02,7]trideca-1(9),10,12-trien-4-yl]quinoline-8-carbonitrile] | 195
[2H]c1ccc2c(N3C[C@@H](C)N4Cc5nc(N6CCC(C)(N)CC6)ccc5[C@H]4C3)ccc(C#N)c2n1 [Example 19, 5-[(2S,6R)-11-(4-amino-4-methyl-1-piperidyl)-6-methyl-4,7,10-triazatricyclo[7.4.0.02,7]trideca-1(9),10,12-trien-4-yl]-2-deuterio-quinoline-8-carbonitrile] | 142
